The target in assay [1] is T1, GST-tagged Tnks-1 (1023-1327 aa) (Homo sapiens, UniProt O95271).
T1 construct: GST-tagged Tnks-1 (1023-1327 aa, prepared in-house); made in house
The experiment in a line: TNKS1 activity ELISA (autoparsylation assay). It counts as biochemical. The method, then:
Description of the TNKS1 and TNKS2 ELISA Assay
Biochemical Activity Testing of TNKS 1 and 2: Activity ELISA (Autoparsylation Assay)
For analysis of autoparsylation activity of TNKS 1 and 2 an activity ELISA is performed: In the first step GST tagged TNKS is captured on a Glutathione coated plate. Then the activity assay with biotinylated NAD is performed in the absence/presence of the compounds. During the enzymatic reaction GST tagged TNKS transfers biotinylated ADP-ribose to itself from biotinylated NAD as co-substrate. For the detection streptavidin-HRP conjugate is added that binds to the biotinylated TNKS and is thereby captured to the plates. The amount of biotinylated resp. autoparsylated TNKS is detected with a luminescence substrate for HRP. The level of the luminescence signal correlats directly with the amount of autoparsylated TNKS and therefore with activity of TNKS.
The activity ELISA is performed in 384 well Glutathione coated microtiter plates (Express capture Glutathione coated plate, Biocat, Heidelberg, Germany). The plates are pre-equilibrated with PBS. Then the plates are incubated with 50 μl 20 ng/well GST-tagged Tnks-1 (1023-1327 aa, prepared in-house), respectively GST-tagged Tnks-2 (873-1166 aa, prepared in-house) in assay buffer (50 mM HEPES, 4 mM Mg-chloride, 0.05% Pluronic F-68, 2 mM DTT, pH 7.7) overnight at 4° C. The plates are washed 3 times with PBS-Tween-20. The wells are blocked by incubation at room temperature for 20 minutes with 50 μl blocking buffer (PBS, 0.05% Tween-20, 0.5% BSA). Afterwards the plates are washed 3 times with PBS-Tween-20. The enzymatic reaction is performed in 50 μl reaction solution (50 mM HEPES, 4 mM Mg-chloride, 0.05% Pluronic F-68, 1.4 mM DTT, 0.5% DMSO, pH 7.7) with 10 μM bio-NAD (Biolog, Life science Inst., Bremen, Germany) as co-substrate in the absence or presence of the test compound (10 dilution concentrations) for 1 hour at 30° C. The reaction is stopped by 3 times washing with PBS-Tween-20. For the detection 50 μl of 20 ng/μl Streptavidin, HRP conjugate (MoBiTec, Göttingen, Germany) in PBS/0.05%Tween-20/0.01%BSA are added and the plates are incubated for 30 minutes at room temperature. After three times washing with PBS-Tween-20 50 μl of SuperSignal ELISA Femto Maximum sensitivity substrate solution (ThermoFisherScientific (Pierce), Bonn, Germany) are added. Following a 1 minute incubation at room temperature luminescence signals are measured with an Envision multimode reader (Perkin Elmer LAS Germany GmbH) at 700 nm. The full value used is the inhibitor-free reaction. The pharmacological zero value used is XAV-939 (Tocris) in a final concentration of 5 μM. The inhibitory values (IC50) are determined using either the program Symyx Assay Explorer® or Condosseo® from GeneData.
On the technique in general: ELISA stands for enzyme-linked immunosorbent assay.

In assay [2] the target is T2, GST-tagged Tankyrase-2 (873-1166 aa) (Homo sapiens, UniProt Q9H2K2).
T2 construct: GST-tagged Tankyrase-2 (873-1166 aa)
The experiment in a line: Tankyrase 2 autoparsylation assay (HTRF enzyme assay). In kind it is biochemical. The procedure:
Biochemical Activity Testing of Tankyrase 1 and 2: Autoparsylation Assay
The autoparsylation assay is run in two steps: the enzymatic reaction in which GST-tagged Tankyrase-1, resp Tankyrase-2 transferred biotinylated ADP-ribose to itself from biotinylated NAD as co-substrate and the detection reaction where a time resolved FRET between cryptate labelled anti-GST bound to the GST tag of the enzyme and Xlent® labelled-streptavidin bound the biotin-parsylation residue is analysed. The autoparsylation activity was detectable directly via the increase in HTRF signal.
The autoparsylation assay is performed as 384-well HTRF® (Cisbio, Codolet, France) assay format in Greiner low volume nb 384-well microtiter plates and is used for high throughput screen. 250 nM GST-tagged Tankyrase-1 (1023-1327 aa), respectively about 250 nM GST-tagged Tankyrase-2 (873-1166 aa) and 5 μM bio-NAD (Biolog, Life science Inst., Bremen, Germany) as co-substrate are incubated in a total volume of 5 μl (50 mM HEPES, 4 mM Mg-chloride, 0.05% Pluronic F-68, 1.4 mM DTT, 0.5% DMSO, pH 7.7) in the absence or presence of the test compound (10 dilution concentrations) for 90 min at 30° C. The reaction is stopped by the addition of 1 μl 50 mM EDTA solution. 2 μl of the detection solution (1.6 μM SA-Xlent® (Cisbio, Codolet, France), 7.4 nM Anti-GST-K® (Eu-labelled anti-GST, Cisbio, Codolet, France) in 50 mM HEPES, 800 mM KF, 0.1% BSA, 20 mM EDTA, 0.1% CHAPS, pH 7.0) are added. After 1 h incubation at room temperature the HTRF is measured with an Envision multimode reader (Perkin Elmer LAS Germany GmbH) at excitation wavelength 340 nm (laser mode) and emission wavelengths 615 nm and 665 nm. The ratio of the emission signals is determined. The full value used is the inhibitor-free reaction. The pharmacological zero value used is XAV-939 (Tocris) in a final concentration of 5 μM. The inhibitory values (IC50) are determined using either the program Symyx Assay Explorer® or Condosseo® from GeneData.
(Time-resolved FRET reads energy transfer from a long-lived donor to a nearby acceptor.)

For the next assay, the system named is Tankyrases. The experiment in a line: Cellular inhibition of Tankyrase: increase of Axin2 level in DLD1 cells (Luminex). In kind it is cell-based. The note with it: 24 hours, read-out: EC50 tankyrase ½ (cell assay). The procedure:
Measurement of Cellular Inhibition of Tankyrase
Since Tankyrases have been described to modulate cellular level of Axin2 (Huang et al., 2009; Nature) the increase of Axin2 level is used as readout for determination of cellular inhibition of Tankyrases in a Luminex based assay.
Cells of the colon carcinoma cell line DLD1 are plated in 96 well plates with 1.5×10^4 cells per well. Next day, cells are treated with a serial dilution of test compound in seven steps as triplicates with a final DMSO concentration of 0.3%. After 24 hours, cells are lysed in lysis buffer (20 mM Tris/HCl pH 8.0, 150 mM NaCl, 1% NP40, 10% Glycerol) and lysates are cleared by centrifugation through a 96 well filter plate (0.65 μm). Axin2 protein is isolated from cell lysates by incubation with a monoclonal anti-Axin2 antibody (R&D Systems #MAB6078) that is bound to fluorescent carboxybeads. Then, bound Axin2 is specifically detected with a polyclonal anti-Axin2 antibody (Cell Signaling #2151) and an appropriate PE-fluorescent secondary antibody. The amount of isolated Axin2 protein is determined in a Luminex^200 machine (Luminex Corporation) according to the manufacturer's instruction by counting 100 events per well. Inhibition of Tankyrase by test compounds results in higher levels of Axin2 which directly correlates with an increase of detectable fluorescence. As controls cells are treated with solvent alone (neutral control) and with a Tankyrase reference inhibitor IWR-2 (3E-06 M) which refers as control for maximum increase of Axin2. For analysis, the obtained data are normalized against the untreated solvent control and fitted for determination of the EC50 values using the Assay Explorer software (Accelrys).

pEC50, pIC50: −log10 of the molar value.

T2 sequence (Q9H2K2 873-1166): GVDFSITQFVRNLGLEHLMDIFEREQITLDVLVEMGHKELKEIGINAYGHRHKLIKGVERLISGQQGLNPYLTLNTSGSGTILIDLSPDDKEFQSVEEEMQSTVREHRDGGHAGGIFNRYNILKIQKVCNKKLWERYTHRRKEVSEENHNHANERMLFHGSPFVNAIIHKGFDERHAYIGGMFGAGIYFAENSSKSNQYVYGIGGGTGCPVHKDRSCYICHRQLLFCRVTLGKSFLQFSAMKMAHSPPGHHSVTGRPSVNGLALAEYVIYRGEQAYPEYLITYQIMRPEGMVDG
T1 sequence (O95271 1023-1327): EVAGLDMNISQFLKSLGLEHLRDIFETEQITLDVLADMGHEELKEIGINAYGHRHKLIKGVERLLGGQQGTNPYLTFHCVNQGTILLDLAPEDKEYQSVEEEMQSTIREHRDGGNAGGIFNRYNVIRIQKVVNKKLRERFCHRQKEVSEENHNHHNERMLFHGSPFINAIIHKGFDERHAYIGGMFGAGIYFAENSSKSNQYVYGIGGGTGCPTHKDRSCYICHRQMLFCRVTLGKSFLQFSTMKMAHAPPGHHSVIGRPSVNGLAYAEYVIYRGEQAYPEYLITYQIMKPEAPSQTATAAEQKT

Take `Cc1cc2c(=O)[nH]c(-c3ccc(-c4cnn(C)c4)cc3)nn2c1` [Compound A13, 6-methyl-2-[4-(1-methylpyrazol-4-yl)phenyl]-3H-pyrrolo-[2,1-f][1,2,4]triazin-4-one]: the pIC50 in assay [1] and in assay [2] was over 6.52 in each case. Moreover, in the assay on Tankyrases, the pEC50 was 5.52 to 6.52.
For the compound `Cc1cc2c(=O)[nH]c(-c3ccc(C(C)(C)O)cc3)nn2c1` [Compound A11, 2-[4-(1-hydroxy-1-methyl-ethyl)phenyl]-6-methyl-3H-pyrrolo[2,1-f][1,2,4]triazin-4-one], the pIC50 in assay [1] and in assay [2] was over 6.52 throughout. In the assay with Tankyrases, the negative-log EC50 (pEC50) is 5.52 to 6.52.
In the case of `CC(C)(OCCO)c1ccc(-c2nn3cccc3c(=O)[nH]2)cc1` [Compound A15, 2-{4-[1-(2-hydroxy-ethoxy)-1-methyl-ethyl]-phenyl}-3H-pyrrolo[2,1-f][1,2,4]triazin-4-one], the pIC50 in assay [1] and in assay [2] was over 6.52 each time. Further, the pEC50 in the assay on Tankyrases is 5.52 to 6.52.
On to `CC(C)(O)c1ccc(-c2nn3cc(F)cc3c(=O)[nH]2)cc1` [Compound A12, 6-fluoro-2-[4-(1-hydroxy-1-methyl-ethyl)phenyl]-3H-pyrrolo[2,1-f][1,2,4]triazin-4-one], for which the negative-log IC50 (pIC50) in assay [1] and in assay [2] was over 6.52 each time. For the same compound, the negative logarithm of the EC50 (pEC50) in the assay on Tankyrases is 5.52 to 6.52.
Turning to `Cn1cc(-c2ccc(-c3nn4cccc4c(=O)[nH]3)cc2)cn1` [Compound A7, 2-[4-(1-methyl-1H-pyrazol-4-yl)-phenyl]-3H-pyrrolo[2,1-f][1,2,4]triazin-4-one], the negative logarithm of the IC50 (pIC50) in assay [1] is over 6.52; in assay [2] it was 5.52 to 6.52. Moreover, the pEC50 in the assay on Tankyrases is 5.52 to 6.52.
Turning to `CC(C)(O)c1ccc(-c2nn3cccc3c(=O)[nH]2)cc1` [Compound A5, 2-[4-(1-hydroxy-1-methyl-ethyl)-phenyl]-3H-pyrrolo[2,1-f][1,2,4]triazin-4-one], the pIC50 in assay [1] and in assay [2] was over 6.52 each time. The negative logarithm of the EC50 (pEC50) in the assay on Tankyrases is 5.52 to 6.52.
Consider `CC(C)(O)c1ccc(-c2nn3cc(Cl)cc3c(=O)[nH]2)cc1` [Compound A18, 6-chloro-2-[4-(1-hydroxy-1-methyl-ethyl)-phenyl]-3H-pyrrolo[2,1-f][1,2,4]triazin-4-one], for which the pIC50 in assay [1] and in assay [2] was over 6.52 throughout. Moreover, in the assay on Tankyrases, the pEC50 is 5.52 to 6.52.
Turning to `CCC(O)(CC)c1ccc(-c2nn3cccc3c(=O)[nH]2)cc1` [Compound A14, 2-[4-(1-ethyl-1-hydroxy-propyl)-phenyl]-3H-pyrrolo[2,1-f][1,2,4]triazin-4-one], the pIC50 in assay [1] and in assay [2] was over 6.52 throughout. Besides, the pEC50 with Tankyrases was over 6.52.
Take `O=c1[nH]c(-c2ccc(C3(O)CCCC3)cc2)nn2cccc12` [Compound A21, 2-[4-(1-hydroxy-cyclopentyl)-phenyl]-3H-pyrrolo[2,1-f][1,2,4]-triazin-4-one]: the negative logarithm of the IC50 (pIC50) in assay [1] and in assay [2] was over 6.52 throughout. In addition, the pEC50 in the assay with Tankyrases was 5.52 to 6.52.

Broadly, the pIC50 is the negative decadic logarithm of the IC50, by convention in mol/L. A low value points to a high IC50. As usually defined, the pEC50 is the negative decadic logarithm of the EC50, by convention in mol/L.
